Source: publication PMC6887723, “Design and Synthesis of 4-(Heterocyclic Substituted Amino)-1H-Pyrazole-3-Carboxamide Derivatives and Their Potent Activity against Acute Myeloid Leukemia (AML)” (International Journal of Molecular Sciences, 2019)

Assays:
BaF3 (FLT3 (ITD-F691L)) = assay: Antiproliferative activity in BaF3 cells transformed with FLT3-ITD-F691L; format: cell-based; details: Mus musculus, Table S2
[1] = tested on: phosphorylation of the retinoblastoma protein (Rb); assay: Western blot, phosphorylation of Rb in MV4-11 cells; format: cell-based, human; details: MV4-11, 4 h; dose-dependent; at 1 μM comparable with AT-7519
Protocol: (§1) Analysis of pFLT3, pSTAT5, pERK, pAKT, and pRb in vitro: to determine the levels of pFLT3, pSTAT5, pERK, pAKT, and pRb, cells were seeded in a 6-well cell culture plate at a density of 400,000 cells per well for MV4-11 in a total volume of 1800 μL and incubated overnight in medium containing 10% fetal bovine serum (Life Technologies, Rockville, MD, USA). Then 200 μL of serially diluted compounds were added to each well the next day. Cell lysates were harvested after 4 h and pFLT3, pSTAT5, pERK, pAKT, or pRb were quantified using assay kits for FLT3/Phospho-FLT3Tyr589/591, pSTAT5 (Tyr694)/total STAT5, pRb (Ser807)/total Rb (Nanjin keyGen Biotech Company, Nanjing, China) following the manufacturer’s protocols.

[2] = tested on: phosphorylation of the FLT3; assay: Western blot, phosphorylation of FLT3 in MV4-11 cells; format: cell-based, human; details: MV4-11, 4 h, 1 μM; dose-dependent, more potent than sorafenib
Protocol: as §1

CDK3/cyclin E = biological target: T1, CDK3/cyclin E (Homo sapiens, UniProt Q00526); assay: Hot-Spot kinase profiling; format: biochemical
T1 construct: purchased Reaction Biology Corp
T1 sequence (Q00526 whole entry): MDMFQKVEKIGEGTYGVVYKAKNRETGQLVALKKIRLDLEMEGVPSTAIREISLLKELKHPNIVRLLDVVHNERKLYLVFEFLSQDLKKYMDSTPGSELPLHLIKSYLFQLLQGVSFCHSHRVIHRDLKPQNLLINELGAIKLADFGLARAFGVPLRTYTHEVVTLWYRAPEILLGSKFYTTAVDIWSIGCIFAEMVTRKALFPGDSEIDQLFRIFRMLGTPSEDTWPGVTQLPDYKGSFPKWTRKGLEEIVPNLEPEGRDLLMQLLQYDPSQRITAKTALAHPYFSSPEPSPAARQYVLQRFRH
T1 sequence (P24864 whole entry partner): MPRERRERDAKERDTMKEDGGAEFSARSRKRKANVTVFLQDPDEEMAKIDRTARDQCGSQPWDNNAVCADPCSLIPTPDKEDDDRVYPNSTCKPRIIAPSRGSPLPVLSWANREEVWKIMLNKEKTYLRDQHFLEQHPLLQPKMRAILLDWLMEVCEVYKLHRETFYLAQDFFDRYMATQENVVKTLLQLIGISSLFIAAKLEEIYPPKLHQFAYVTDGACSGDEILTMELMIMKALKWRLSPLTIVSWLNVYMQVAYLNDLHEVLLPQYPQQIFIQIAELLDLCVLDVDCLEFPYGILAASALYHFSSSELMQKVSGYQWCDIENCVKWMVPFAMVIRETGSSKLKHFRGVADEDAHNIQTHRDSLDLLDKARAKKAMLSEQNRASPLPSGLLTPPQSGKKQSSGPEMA
Protocol: (§2) Activities of kinases were determined using Hot-SpotSM kinase assay which was performed by Reaction Biology Corp. (Malvern PA, USA) as described previously.

c-Src = biological target: T2, c-Src (Homo sapiens, UniProt P12931); assay: Hot-Spot kinase profiling; format: biochemical; details: read-out: % Enzyme Activity (Relative to DMSO Controls) c-Src
T2 construct: purchased Reaction Biology Corp. (HotSpot kinase assay)
T2 sequence (P12931 whole entry): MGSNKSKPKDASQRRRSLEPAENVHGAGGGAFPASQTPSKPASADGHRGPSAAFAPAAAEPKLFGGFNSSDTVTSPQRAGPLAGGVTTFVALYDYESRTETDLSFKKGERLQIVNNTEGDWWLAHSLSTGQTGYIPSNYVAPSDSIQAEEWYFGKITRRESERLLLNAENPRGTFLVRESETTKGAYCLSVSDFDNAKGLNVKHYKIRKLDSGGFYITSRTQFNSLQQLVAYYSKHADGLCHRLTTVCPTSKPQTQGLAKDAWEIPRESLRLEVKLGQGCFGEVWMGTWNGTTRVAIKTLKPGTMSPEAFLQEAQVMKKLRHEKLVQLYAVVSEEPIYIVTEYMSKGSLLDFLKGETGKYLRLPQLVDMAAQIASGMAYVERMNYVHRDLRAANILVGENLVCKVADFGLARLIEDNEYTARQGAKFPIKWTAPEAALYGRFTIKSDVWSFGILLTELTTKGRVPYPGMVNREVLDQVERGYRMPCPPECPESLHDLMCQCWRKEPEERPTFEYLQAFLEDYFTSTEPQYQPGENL
Protocol: as §2

FLT3 = biological target: T3, FLT3 (Homo sapiens, UniProt P36888); assay: Hot-Spot kinase profiling; format: biochemical
T3 construct: purchased Reaction Biology Corp
T3 sequence (P36888 27-993): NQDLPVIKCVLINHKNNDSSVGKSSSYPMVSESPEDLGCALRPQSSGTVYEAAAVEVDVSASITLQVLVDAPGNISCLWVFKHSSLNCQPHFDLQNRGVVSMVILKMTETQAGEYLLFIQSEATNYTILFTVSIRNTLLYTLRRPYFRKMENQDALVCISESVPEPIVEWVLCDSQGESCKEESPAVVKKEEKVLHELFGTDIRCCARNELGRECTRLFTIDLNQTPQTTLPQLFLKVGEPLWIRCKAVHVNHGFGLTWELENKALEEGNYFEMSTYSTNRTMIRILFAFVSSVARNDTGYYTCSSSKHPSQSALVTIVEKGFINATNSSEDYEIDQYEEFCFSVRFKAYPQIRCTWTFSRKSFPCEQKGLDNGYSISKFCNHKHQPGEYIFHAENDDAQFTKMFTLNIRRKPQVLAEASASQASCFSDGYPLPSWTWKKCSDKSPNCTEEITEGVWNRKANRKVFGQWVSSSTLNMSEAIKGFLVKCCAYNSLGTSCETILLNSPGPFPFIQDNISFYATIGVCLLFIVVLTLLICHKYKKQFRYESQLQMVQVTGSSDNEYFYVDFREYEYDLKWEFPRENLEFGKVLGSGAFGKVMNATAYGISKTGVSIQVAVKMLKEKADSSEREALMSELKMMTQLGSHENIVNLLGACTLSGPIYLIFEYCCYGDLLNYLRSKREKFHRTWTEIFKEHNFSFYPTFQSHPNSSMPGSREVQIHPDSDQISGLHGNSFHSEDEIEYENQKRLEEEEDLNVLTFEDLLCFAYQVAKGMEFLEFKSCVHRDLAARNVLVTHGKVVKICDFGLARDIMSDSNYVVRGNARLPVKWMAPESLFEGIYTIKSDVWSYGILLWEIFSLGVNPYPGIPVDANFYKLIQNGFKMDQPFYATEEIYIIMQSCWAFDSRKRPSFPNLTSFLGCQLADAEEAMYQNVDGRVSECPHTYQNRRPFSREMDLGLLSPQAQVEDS
Protocol: as §2

FLT3 (ITD)-W51 = biological target: T4, FLT3 (ITD)-W51 (Homo sapiens, UniProt P36888, DUP595-601); assay: Hot-Spot kinase profiling; format: biochemical
T4 construct: purchased Reaction Biology Corp
T4 sequence (P36888 with tags, fused parts or gaps DUP595-601 limits assumed): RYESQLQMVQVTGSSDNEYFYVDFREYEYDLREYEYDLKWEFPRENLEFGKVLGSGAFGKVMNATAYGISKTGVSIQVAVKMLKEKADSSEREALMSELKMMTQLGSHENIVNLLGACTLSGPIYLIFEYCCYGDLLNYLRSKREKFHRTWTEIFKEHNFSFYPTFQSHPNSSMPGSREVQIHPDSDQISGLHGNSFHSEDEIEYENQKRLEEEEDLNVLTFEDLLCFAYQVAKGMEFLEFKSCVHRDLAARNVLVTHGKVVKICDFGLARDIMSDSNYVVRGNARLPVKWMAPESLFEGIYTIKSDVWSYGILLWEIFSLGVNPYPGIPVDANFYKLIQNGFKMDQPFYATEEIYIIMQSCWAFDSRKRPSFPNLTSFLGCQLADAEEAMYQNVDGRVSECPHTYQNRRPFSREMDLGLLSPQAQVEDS
Protocol: as §2

GSK3β = biological target: T5, GSK3β (Homo sapiens, UniProt P49841); assay: Hot-Spot kinase profiling; format: biochemical
T5 construct: purchased Reaction Biology Corp
T5 sequence (P49841 whole entry): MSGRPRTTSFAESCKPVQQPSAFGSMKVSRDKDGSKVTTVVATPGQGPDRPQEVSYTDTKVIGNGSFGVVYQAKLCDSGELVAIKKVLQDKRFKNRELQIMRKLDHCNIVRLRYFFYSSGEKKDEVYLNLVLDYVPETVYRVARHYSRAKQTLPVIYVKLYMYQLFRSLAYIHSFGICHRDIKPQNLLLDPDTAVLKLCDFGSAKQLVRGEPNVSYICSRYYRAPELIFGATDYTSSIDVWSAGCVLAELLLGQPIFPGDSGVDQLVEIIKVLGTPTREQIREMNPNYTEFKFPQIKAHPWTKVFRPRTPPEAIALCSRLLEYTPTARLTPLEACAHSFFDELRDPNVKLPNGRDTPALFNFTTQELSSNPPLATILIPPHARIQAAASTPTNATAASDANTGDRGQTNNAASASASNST
Protocol: as §2

CDK1/cyclin B = biological target: T6, CDK1/cyclin B (Homo sapiens, UniProt P06493); assay: Hot-Spot kinase profiling; format: biochemical
T6 construct: purchased Reaction Biology Corp
T6 sequence (P06493 whole entry): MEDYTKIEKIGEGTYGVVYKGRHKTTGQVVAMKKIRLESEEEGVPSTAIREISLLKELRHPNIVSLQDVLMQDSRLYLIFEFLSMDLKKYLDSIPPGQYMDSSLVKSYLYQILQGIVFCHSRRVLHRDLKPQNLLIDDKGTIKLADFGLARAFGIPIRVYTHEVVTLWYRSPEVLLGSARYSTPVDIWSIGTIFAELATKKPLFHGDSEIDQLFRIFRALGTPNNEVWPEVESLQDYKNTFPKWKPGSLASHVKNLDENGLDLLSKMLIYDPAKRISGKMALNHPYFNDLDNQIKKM
T6 sequence (P14635 whole entry partner): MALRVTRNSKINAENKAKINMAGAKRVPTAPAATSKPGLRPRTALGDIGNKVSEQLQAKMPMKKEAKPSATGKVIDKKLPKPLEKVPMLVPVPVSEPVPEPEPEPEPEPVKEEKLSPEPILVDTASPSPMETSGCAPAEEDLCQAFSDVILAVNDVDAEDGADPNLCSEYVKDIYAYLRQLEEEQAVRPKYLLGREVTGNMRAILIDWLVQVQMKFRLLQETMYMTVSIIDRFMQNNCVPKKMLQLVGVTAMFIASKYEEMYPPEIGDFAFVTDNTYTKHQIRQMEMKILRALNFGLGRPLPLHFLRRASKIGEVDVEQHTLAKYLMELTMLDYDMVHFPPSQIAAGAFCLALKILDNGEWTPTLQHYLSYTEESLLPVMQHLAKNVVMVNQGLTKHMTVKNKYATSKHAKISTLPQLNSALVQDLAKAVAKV
Protocol: as §2

AKT1 = biological target: T7, AKT1 (Homo sapiens, UniProt P31749); assay: Hot-Spot kinase profiling; format: biochemical; details: read-out: % Enzyme Activity (Relative to DMSO Controls) AKT1
T7 construct: purchased Reaction Biology Corp. (HotSpot kinase assay)
Protocol: as §2

CDK6/cyclin D1 = biological target: T8, CDK6/cyclin D1 (Homo sapiens, UniProt Q00534); assay: Hot-Spot kinase profiling; format: biochemical
T8 construct: purchased Reaction Biology Corp
T8 sequence (Q00534 whole entry): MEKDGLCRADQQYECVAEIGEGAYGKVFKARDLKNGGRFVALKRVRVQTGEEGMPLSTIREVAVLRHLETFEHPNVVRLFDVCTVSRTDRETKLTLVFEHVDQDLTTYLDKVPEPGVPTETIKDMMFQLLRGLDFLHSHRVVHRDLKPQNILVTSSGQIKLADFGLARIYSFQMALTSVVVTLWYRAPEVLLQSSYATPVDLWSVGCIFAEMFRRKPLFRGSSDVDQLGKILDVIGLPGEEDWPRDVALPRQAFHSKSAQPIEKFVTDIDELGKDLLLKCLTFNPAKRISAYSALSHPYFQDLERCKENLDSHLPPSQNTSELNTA
T8 sequence (P24385 whole entry partner): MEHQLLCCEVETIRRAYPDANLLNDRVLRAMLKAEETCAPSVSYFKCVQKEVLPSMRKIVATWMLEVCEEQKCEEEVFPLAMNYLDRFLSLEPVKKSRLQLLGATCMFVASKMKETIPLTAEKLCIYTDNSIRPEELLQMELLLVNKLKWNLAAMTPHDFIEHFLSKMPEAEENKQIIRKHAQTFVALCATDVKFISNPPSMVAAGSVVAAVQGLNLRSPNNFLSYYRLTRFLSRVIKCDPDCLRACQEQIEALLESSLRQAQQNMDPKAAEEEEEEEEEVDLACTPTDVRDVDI
Protocol: as §2

ABL1 = biological target: T9, ABL1 (Homo sapiens, UniProt P00519); assay: Hot-Spot kinase profiling; format: biochemical; details: read-out: % Enzyme Activity (Relative to DMSO Controls) ABL1
T9 construct: purchased Reaction Biology Corp. (HotSpot kinase assay)
T9 sequence (P00519 whole entry): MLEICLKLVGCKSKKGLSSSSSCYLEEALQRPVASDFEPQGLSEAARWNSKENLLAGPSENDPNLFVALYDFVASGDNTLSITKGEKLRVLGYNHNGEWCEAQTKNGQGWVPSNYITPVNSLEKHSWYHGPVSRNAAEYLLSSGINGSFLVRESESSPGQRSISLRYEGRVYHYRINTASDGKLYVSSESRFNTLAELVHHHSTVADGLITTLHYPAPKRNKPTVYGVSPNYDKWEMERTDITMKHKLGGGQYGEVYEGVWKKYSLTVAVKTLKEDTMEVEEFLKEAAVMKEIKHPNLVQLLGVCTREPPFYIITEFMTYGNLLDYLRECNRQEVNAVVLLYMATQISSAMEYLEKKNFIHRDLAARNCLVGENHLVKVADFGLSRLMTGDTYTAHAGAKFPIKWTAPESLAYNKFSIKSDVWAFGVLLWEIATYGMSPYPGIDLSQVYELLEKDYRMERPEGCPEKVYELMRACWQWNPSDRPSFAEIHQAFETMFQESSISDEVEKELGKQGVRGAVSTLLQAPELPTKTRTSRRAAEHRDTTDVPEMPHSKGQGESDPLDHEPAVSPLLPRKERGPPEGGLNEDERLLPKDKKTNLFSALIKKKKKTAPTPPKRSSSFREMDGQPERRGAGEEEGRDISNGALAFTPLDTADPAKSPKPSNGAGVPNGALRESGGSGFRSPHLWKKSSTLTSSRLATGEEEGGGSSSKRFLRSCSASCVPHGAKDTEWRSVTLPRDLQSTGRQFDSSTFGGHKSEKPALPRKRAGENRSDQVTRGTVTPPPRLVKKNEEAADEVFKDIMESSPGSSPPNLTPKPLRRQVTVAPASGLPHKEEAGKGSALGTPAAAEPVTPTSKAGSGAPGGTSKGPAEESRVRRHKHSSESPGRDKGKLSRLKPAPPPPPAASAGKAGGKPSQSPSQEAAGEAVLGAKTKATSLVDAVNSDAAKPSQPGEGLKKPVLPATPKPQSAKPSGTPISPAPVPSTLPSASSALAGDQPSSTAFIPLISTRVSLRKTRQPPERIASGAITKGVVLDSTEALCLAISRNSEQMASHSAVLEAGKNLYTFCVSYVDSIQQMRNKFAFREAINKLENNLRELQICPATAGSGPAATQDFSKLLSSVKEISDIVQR
Protocol: as §2

FLT3 (ITD)-NPOS = FLT3 (ITD)-NPOS (Homo sapiens, UniProt P36888, ITD); assay: Hot-Spot kinase profiling; format: biochemical
Protocol: as §2

CDK4 = biological target: T10, CDK4 (Homo sapiens, UniProt P11802); assay: CDK4 kinase activity assay (Hot-Spot); format: biochemical; details: 10 μM ATP; mean ± SD, three independent experiments
T10 construct: purchased Reaction Biology Corp
T10 sequence (P11802 whole entry): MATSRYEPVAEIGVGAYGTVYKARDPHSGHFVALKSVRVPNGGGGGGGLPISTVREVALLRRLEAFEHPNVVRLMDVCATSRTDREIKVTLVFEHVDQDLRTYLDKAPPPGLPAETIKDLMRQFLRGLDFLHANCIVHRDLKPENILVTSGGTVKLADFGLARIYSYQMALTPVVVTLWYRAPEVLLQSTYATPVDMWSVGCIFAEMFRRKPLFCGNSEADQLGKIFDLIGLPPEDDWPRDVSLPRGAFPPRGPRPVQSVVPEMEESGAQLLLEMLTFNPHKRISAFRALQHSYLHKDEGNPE
T10 sequence (P24385 whole entry partner): as the sequence (P24385 whole entry partner) above
Protocol: as §2

In the case of O=C(Nc1ccc(N2CCNCC2)cc1)c1n[nH]cc1Nc1ncnc2sc3c(c12)CCC3 [Compound 8t], the IC50 (BaF3 (FLT3 (ITD-F691L))) is reported as 21.9 nM, the “phosphorylation of the retinoblastoma protein (Rb)” value [1] is reported as “inhibited” and the “phosphorylation of the FLT3” value [2] is reported as “eliminated”. For the same molecule, the remaining activity at 0.15 µM (CDK3/cyclin E; 0.15 μM, read-out: % Enzyme Activity (Relative to DMSO Controls) CDK3/cyclin E) was 5.94%, the IC50 (CDK3/cyclin E; Table 5 kinase profiling) was 6.88 ± 0.25 nM and the remaining activity at 0.15 µM (c-Src) was 73.8%. The remaining activity at 0.15 µM (FLT3; 0.15 μM, read-out: % Enzyme Activity (Relative to DMSO Controls) FLT3) was 0.01%, the IC50 (FLT3; Table 5 kinase profiling) was 0.035 ± 0.01 nM and the remaining activity at 0.15 µM (FLT3 (ITD)-W51; 0.15 μM, read-out: % Enzyme Activity (Relative to DMSO Controls) FLT3 (ITD)-W51) was 0.51%. The IC50 (FLT3 (ITD)-W51; Table 5 kinase profiling) was 0.94 ± 0.09 nM, the remaining activity at 0.15 µM (GSK3β; 0.15 μM, read-out: % Enzyme Activity (Relative to DMSO Controls) GSK3b) was 8.65% and the IC50 (GSK3β; Table 5 kinase profiling) was 12 ± 1.2 nM. It also gave a remaining activity at 0.15 µM (CDK1/cyclin B; 0.15 μM, read-out: % Enzyme Activity (Relative to DMSO Controls) CDK1/cyclin B) of 18.2%, an IC50 (CDK1/cyclin B; Table 5 kinase profiling) of 138 ± 1.24 nM and a remaining activity at 0.15 µM (AKT1) of 122%. The remaining activity at 0.15 µM (CDK6/cyclin D1; 0.15 μM, read-out: % Enzyme Activity (Relative to DMSO Controls) CDK6/cyclin D1) was 1.33%, the IC50 (CDK6/cyclin D1; Table 5 kinase profiling) was 0.59 ± 0.09 nM and the remaining activity at 0.15 µM (ABL1) was 81%. For the same molecule, the remaining activity at 0.15 µM (FLT3 (ITD)-NPOS; 0.15 μM, read-out: % Enzyme Activity (Relative to DMSO Controls) FLT3 (ITD)-NPOS) was 1.38%, the IC50 (FLT3 (ITD)-NPOS; Table 5 kinase profiling) was 4.32 ± 0.23 nM and the IC50 (CDK4) was 0.77 ± 0.007 nM.
